{"source": "paper doi:10.1101/513044v1", "about": "(biorxiv, 2019)", "key": {"TaOR10 + TaORco": {"tested_on": "TaOR10 + TaORco", "test": "two-electrode voltage clamp, Xenopus oocytes", "assay_type": "cell-based, Toxorhynchites amboinensis", "conditions": "agonist; co-expressed with TaORco; -80 mV; 10^-10 to 10^-4 M"}, "TaOR2 + TaORco": {"tested_on": "TaOR2 + TaORco", "test": "two-electrode voltage clamp, Xenopus oocytes", "assay_type": "cell-based, Toxorhynchites amboinensis", "conditions": "agonist; co-expressed with TaORco; -80 mV; 10^-10 to 10^-4 M"}}}
{"smiles": "c1ccc2[nH]ccc2c1", "note": "[indole]", "values": [{"measurement": "EC50", "setting": "TaOR10 + TaORco", "result": 9160, "unit": "nM"}, {"measurement": "EC50", "setting": "TaOR2 + TaORco", "result": 88, "unit": "nM"}]}
{"smiles": "Cc1c[nH]c2ccccc12", "note": "[skatole]", "values": [{"measurement": "EC50", "setting": "TaOR10 + TaORco", "result": 87, "unit": "nM"}, {"measurement": "EC50", "setting": "TaOR2 + TaORco", "result": 1380, "unit": "nM"}]}
